pKi: −log10 of the molar value.

For the test, the target named is T1, nuclear factor-kappa B (NF-kB)-inducing kinase (NIK) (Homo sapiens, UniProt Q99558).
T1 construct: made in house; host or cells: baculovirus-infected insect cells
T1 sequence (Q99558 whole entry): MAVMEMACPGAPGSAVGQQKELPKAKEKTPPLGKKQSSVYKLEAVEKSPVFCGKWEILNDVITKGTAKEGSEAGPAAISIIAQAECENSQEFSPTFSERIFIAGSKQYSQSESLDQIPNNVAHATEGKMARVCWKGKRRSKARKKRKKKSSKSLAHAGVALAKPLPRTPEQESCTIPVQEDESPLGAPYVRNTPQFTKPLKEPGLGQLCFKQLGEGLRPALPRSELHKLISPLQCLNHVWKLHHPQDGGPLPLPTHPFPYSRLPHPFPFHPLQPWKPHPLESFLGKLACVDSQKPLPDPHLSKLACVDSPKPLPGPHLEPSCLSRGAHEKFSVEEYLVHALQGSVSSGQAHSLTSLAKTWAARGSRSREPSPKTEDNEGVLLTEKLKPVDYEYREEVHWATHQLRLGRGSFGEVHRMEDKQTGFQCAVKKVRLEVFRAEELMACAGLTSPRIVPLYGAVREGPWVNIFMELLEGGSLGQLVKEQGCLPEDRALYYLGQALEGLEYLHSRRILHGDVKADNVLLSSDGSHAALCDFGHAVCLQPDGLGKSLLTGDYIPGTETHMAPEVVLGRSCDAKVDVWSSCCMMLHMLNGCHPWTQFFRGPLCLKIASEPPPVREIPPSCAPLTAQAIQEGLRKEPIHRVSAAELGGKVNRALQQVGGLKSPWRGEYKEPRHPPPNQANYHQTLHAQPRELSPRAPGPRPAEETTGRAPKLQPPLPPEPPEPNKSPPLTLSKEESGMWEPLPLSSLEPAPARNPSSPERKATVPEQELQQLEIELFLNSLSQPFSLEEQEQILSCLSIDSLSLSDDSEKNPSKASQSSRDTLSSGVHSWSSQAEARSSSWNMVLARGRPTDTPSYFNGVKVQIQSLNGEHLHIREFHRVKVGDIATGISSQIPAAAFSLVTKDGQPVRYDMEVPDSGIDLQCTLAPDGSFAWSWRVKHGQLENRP
Description: NIK Enzyme Inhibition Assay (Transcreener ADP assay). It counts as biochemical. The conditions noted are these: purified NIK 0.2-1 nM, 10 uM ATP, fluorescence polarization, Morrison's quadratic equation; read-out: inhibitory value (Ki) for NIK. On the technique in general: In fluorescence polarisation assays a small probe gives low polarisation when free and higher when bound to something large.
With `COCCOc1nc2ccc(C#CC(C)(O)c3ncccn3)cc2n1-c1ccnc(N)n1` (stereo not shown) [Example T1.1-58, 4-[3-(2-aminopyrimidin-4-yl)-2-(2-methoxyethoxy)benzimidazol-5-yl]-2-pyrimidin-2-yl-but-3-yn-2-ol], the pKi (usually the negative decadic logarithm of the Ki, by convention in mol/L) was 8.30.

As to `Cc1cc(C(C)(O)C#Cc2ccc3c(C(O)(C4CCOCC4)C4CC4)nn(-c4ccnc(N)n4)c3c2)no1` (stereo not shown) [Example T1.1-59, 4-[1-(2-aminopyrimidin-4-yl)-3-(cyclopropyl-hydroxy-tetrahydropyran-4-yl-methyl)indazol-6-yl]-2-(5-methyl-isoxazol-3-yl)but-3-yn-2-ol], the negative-log Ki (pKi) was 8.30.

Turning to `CC(O)(C#Cc1ccc2nc(OCCO)n(-c3ccnc(N)n3)c2c1)c1ncccn1` (stereo not shown) [Example T1.1-60, 4-[3-(2-aminopyrimidin-4-yl)-2-(2-hydroxyethoxy)benzimidazol-5-yl]-2-pyrimidin-2-yl-but-3-yn-2-ol], the pKi was 8.22.

In the case of `CC(O)(C#Cc1ccc2c(CO)nn(-c3ccnc(N)n3)c2c1)c1ncccn1` (stereo not shown) [Example T1.1-61, 4-[1-(2-aminopyrimidin-4-yl)-3-(hydroxymethyl)indazol-6-yl]-2-pyrimidin-2-yl-but-3-yn-2-ol], the pKi is 8.22.

Regarding `Cc1nc2ccc(C#CC(C)(O)c3ncccn3)cc2n1-c1ncnc(N)n1` (stereo not shown) [Example T1.1-62, 4-[3-(4-amino-1,3,5-triazin-2-yl)-2-methyl-benzimidazol-5-yl]-2-pyrimidin-2-yl-but-3-yn-2-ol], the pKi was 8.22.

As for `CC(O)(C#Cc1ccc2c(C(=O)N3CC4(COC4)C3)nn(-c3ccnc(N)n3)c2c1)c1ncccn1` (stereo not shown) [Example T1.1-63, [1-(2-aminopyrimidin-4-yl)-6-(3-hydroxy-3-pyrimidin-2-yl-but-1-ynyl)indazol-3-yl]-(2-oxa-6-azaspiro[3.3]heptan-6-yl)methanone], the pKi was 8.22.

As to `CN(C)C(=O)c1nn(-c2ccnc(N)n2)c2cc(C#CC(C)(O)c3ncccn3)ccc12` (stereo not shown) [Example T1.1-64, 1-(2-aminopyrimidin-4-yl)-6-(3-hydroxy-3-pyrimidin-2-yl-but-1-ynyl)-N,N-dimethyl-indazole-3-carboxamide], the pKi is 8.22.

With `Cc1nc([C@](C)(O)C#Cc2ccc3c(CN4CC(F)(F)C4)nn(-c4ccnc(N)n4)c3c2)no1` [Example T1.1-65, (2R)-4-[1-(2-aminopyrimidin-4-yl)-3-[(3,3-difluoroazetidin-1-yl)methyl]indazol-6-yl]-2-(5-methyl-1,2,4-oxadiazol-3-yl)but-3-yn-2-ol], the pKi is 8.15.

Take `CC(O)(C#Cc1ccc2c(C(=O)N3CC4CC3CO4)nn(-c3ccnc(N)n3)c2c1)c1ncccn1` (stereo not shown) [Example T1.1-66, [1-(2-aminopyrimidin-4-yl)-6-(3-hydroxy-3-pyrimidin-2-yl-but-1-ynyl)indazol-3-yl]-(2-oxa-5-azabicyclo[2.2.1]heptan-5-yl)methanone]: the pKi was 8.15.

For the compound `CC(C)(O)c1nn(-c2ccnc(N)n2)c2cc(C#CC3(O)CCc4cccnc43)ccc12` (stereo not shown) [Example T1.1-67, 7-[2-[1-(2-aminopyrimidin-4-yl)-3-(1-hydroxy-1-methyl-ethyl)indazol-6-yl]ethynyl]-5,6-dihydrocyclopenta[b] pyridin-7-ol], the pKi was 8.10.

Take `Cc1nc([C@](C)(O)C#Cc2ccc3c(C(=O)N4CCC(F)CC4)nn(-c4nc(N)ncc4Cl)c3c2)no1` [Example T1.1-68, [1-(2-amino-5-chloro-pyrimidin-4-yl)-6-[(3R)-3-hydroxy-3-(5-methyl-1,2,4-oxadiazol-3-yl)but-1-ynyl]indazol-3-yl]-(4-fluoro-1-piperidyl)methanone]: the pKi was 8.05.

`CC1CN(C(=O)c2nn(-c3ccnc(N)n3)c3cc(C#CC(C)(O)c4ncccn4)ccc23)CC(C)O1` (stereo not shown) [Example T1.1-69, [1-(2-aminopyrimidin-4-yl)-6-(3-hydroxy-3-pyrimidin-2-yl-but-1-ynyl)indazol-3-yl]-(2,6-dimethylmorpholin-4-yl) methanone]: the pKi is 8.05.

Turning to `Cc1cc(C(C)(O)C#Cc2ccc3nc(OCC4COC(C)(C)O4)n(-c4ccnc(N)n4)c3c2)no1` (stereo not shown) [Example T1.1-70, 4-[3-(2-aminopyrimidin-4-yl)-2-[(2,2-dimethyl-1,3-dioxolan-4-yl)methoxy]benzimidazol-5-yl]-2-(5-methylisoxazol-3-yl)but-3-yn-2-ol], the pKi is 8.05.

In the case of `Cc1nc([C@](C)(O)C#Cc2ccc3c(C(=O)N4CCCCC4)nn(-c4nc(N)ncc4Cl)c3c2)no1` [Example T1.1-71, [1-(2-amino-5-chloro-pyrimidin-4-yl)-6-[(3R)-3-hydroxy-3-(5-methyl-1,2,4-oxadiazol-3-yl)but-1-ynyl]indazol-3-yl]-(1-piperidyl)methanone], the pKi is 8.00.

Take `CC(O)(C#Cc1ccc2nc(OC3COC3)n(-c3ccnc(N)n3)c2c1)c1ncccn1` (stereo not shown) [Example T1.1-72, 4-[3-(2-aminopyrimidin-4-yl)-2-(oxetan-3-yloxy)benzimidazol-5-yl]-2-pyrimidin-2-yl-but-3-yn-2-ol]: the pKi was 7.92.

As for `Cc1nn(-c2ccnc(N)n2)c2cc(C#CC(C)(O)c3cc[nH]n3)ccc12` (stereo not shown) [Example T1.1-73, 4-[1-(2-aminopyrimidin-4-yl)-3-methyl-indazol-6-yl]-2-(1H-pyrazol-3-yl)but-3-yn-2-ol], the pKi is 7.92.

As for `CC1CN(C(=O)c2nn(-c3ccnc(N)n3)c3cc(C#CC(C)(O)c4ncccn4)ccc23)CC(C)O1` (stereo not shown) [Example T1.1-74, [1-(2-aminopyrimidin-4-yl)-6-(3-hydroxy-3-pyrimidin-2-yl-but-1-ynyl)indazol-3-yl]-(2,6-dimethylmorpholin-4-yl) methanone], the negative-log Ki (pKi) was 7.89.

On to `CC(O)(C#Cc1ccc2c(C(=O)N3CCOCC3)nn(-c3ccnc(N)n3)c2c1)CF` (stereo not shown) [Example T1.1-75, [1-(2-aminopyrimidin-4-yl)-6-(4-fluoro-3-hydroxy-3-methyl-but-1-ynyl)indazol-3-yl]-morpholino-methanone], for which the pKi is 7.85.

As for `Cc1nn(-c2ccnc(N)n2)c2cc(C#CC(C)(O)c3cocn3)ccc12` (stereo not shown) [Example T1.1-76, 4-[1-(2-aminopyrimidin-4-yl)-3-methyl-indazol-6-yl]-2-oxazol-4-yl-but-3-yn-2-ol], the pKi is 7.80.

With `CC(O)(C#Cc1ccc2c(CN3CCOCC3)nn(-c3ccnc(N)n3)c2c1)c1ncccn1` (stereo not shown) [Example T1.1-78, 4-[1-(2-aminopyrimidin-4-yl)-3-(morpholinomethyl)indazol-6-yl]-2-pyrimidin-2-yl-but-3-yn-2-ol], the pKi is 7.70.

Regarding `Cc1cc(C(C)(O)C#Cc2ccc3c(C(NC4CCCC4)C4CC4)nn(-c4ccnc(N)n4)c3c2)no1` (stereo not shown) [Example T1.1-79, 4-[1-(2-aminopyrimidin-4-yl)-3-[(cyclopentylamino)-cyclopropyl-methyl]indazol-6-yl]-2-(5-methyl-isoxazol-3-yl)but-3-yn-2-ol], the pKi is 7.70.

Take `Cc1nc([C@](C)(O)C#Cc2ccc3c(c2)n(-c2ccnc(N)n2)c(=O)n3CC2CC2)no1` [Example T1.1-81, 3-(2-aminopyrimidin-4-yl)-1-(cyclopropylmethyl)-5-[(3R)-3-hydroxy-3-(5-methyl-1,2,4-oxadiazol-3-yl)but-1-ynyl] benzimidazol-2-one]: the pKi is 7.62.

For `Cc1noc(C(C)(O)C#Cc2ccc3c(C(=O)N(C)C)nn(-c4ccnc(N)n4)c3c2)n1` (stereo not shown) [Example T1.1-82, 1-(2-aminopyrimidin-4-yl)-6-[3-hydroxy-3-(3-methyl-1,2,4-oxadiazol-5-yl)but-1-ynyl]-N,N-dimethyl-indazole-3-carboxamide], the pKi is 7.60.

As to `Cn1cnc(C(C)(O)C#Cc2ccc3c(C(=O)N4CCOCC4)nn(-c4ccnc(N)n4)c3c2)n1` (stereo not shown) [Example T1.1-83, [1-(2-aminopyrimidin-4-yl)-6-[3-hydroxy-3-(1-methyl-1,2,4-triazol-3-yl)but-1-ynyl]indazol-3-yl]-morpholino-methanone], the pKi is 7.60.

For `COCc1cc(C(C)(O)C#Cc2ccc3c(C(=O)N4CCOCC4)nn(-c4ccnc(N)n4)c3c2)no1` (stereo not shown) [Example T1.1-84, [1-(2-aminopyrimidin-4-yl)-6-[3-hydroxy-3-[5-(methoxymethyl)isoxazol-3-yl]but-1-ynyl]indazol-3-yl]-morpholino-methanone], the pKi is 7.57.

Regarding `Cc1cc(C(C)(O)C#Cc2ccc3c(C(NC4CCCC4)C4CC4)nn(-c4ccnc(N)n4)c3c2)no1` (stereo not shown) [Example T1.1-85, 4-[1-(2-aminopyrimidin-4-yl)-3-[(cyclopentylamino)-cyclopropyl-methyl]indazol-6-yl]-2-(5-methyl-isoxazol-3-yl)but-3-yn-2-ol], the pKi was 7.57.

Take `Nc1nccc(-n2nc(C(=O)N3CCOCC3)c3ccc(C#CC(O)(CF)CF)cc32)n1` [Example T1.1-86, [1-(2-aminopyrimidin-4-yl)-6-[4-fluoro-3-(fluoromethyl)-3-hydroxy-but-1-ynyl]indazol-3-yl]-morpholino-methanone]: the pKi is 7.51.

On to `Cn1cc(-c2cnc(N)nc2-n2ncc3ccc(C#CC(C)(C)O)cc32)cn1` [Example T1.1-87, 4-[1-[2-amino-5-(1-methyl-pyrazol-4-yl)pyrimidin-4-yl]indazol-6-yl]-2-methyl-but-3-yn-2-ol], for which the pKi is 7.41.

As for `Cc1cc([C@@](C)(O)C#Cc2ccc3c(C(=O)N4CCOCC4)nn(-c4ccnc(N)n4)c3c2)no1` [Example T1.1-88, [1-(2-aminopyrimidin-4-yl)-6-[(3S)-3-hydroxy-3-(5-methylisoxazol-3-yl)but-1-ynyl]indazol-3-yl]-morpholino-methanone], the pKi is 7.34.

On to `CN1CCN(C(=O)c2nn(-c3ccnc(N)n3)c3cc(C#CC(C)(O)c4ncccn4)ccc23)CC1` (stereo not shown) [Example T1.1-89, [1-(2-aminopyrimidin-4-yl)-6-(3-hydroxy-3-pyrimidin-2-yl-but-1-ynyl)indazol-3-yl]-(4-methylpiperazin-1-yl)methanone], for which the pKi is 7.28.

`Cc1nn(-c2ccnc(N)n2)c2cc(C#CC(C)(O)c3nccn3C)ccc12` (stereo not shown) [Example T1.1-90, 4-[1-(2-aminopyrimidin-4-yl)-3-methyl-indazol-6-yl]-2-(1-methyl-imidazol-2-yl)but-3-yn-2-ol]: the pKi is 7.27.

These data come from US8901313B2, “6,5-heterocyclic propargylic alcohol compounds and uses therefor” (Genentech, Inc., priority 2011, dated 2014).
